Assay results: ChEMBL document CHEMBL1201862, “PubChem BioAssay data set” (2004)
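Step 1: Grow cells in 96-well plates. Step 2: Expose to compound for 48 hours at 5 concentrations. Step 3: Interpolate endpoints linearly; if unreached, use highest concentration. At the GI50, growth is halved.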 Activity calls are given as the source filed them. No stated cut-off is given here; in the data, active = GI50 up to about 1.1 µM and inactive = higher.

Legend:
Assay in all cases: inhibition of tumour cell growth, NCI panel, 48 h
[1] = test system: CAKI-1
[2] = test system: MOLT-4
[3] = test system: SK-MEL-5
[4] = test system: TK-10
[5] = test system: COLO 205
[6] = test system: HT-29
[7] = test system: BT-549
[8] = test system: SK-OV-3
[9] = test system: HCT-15
[10] = test system: HCC 2998
[11] = test system: DU-145
[12] = test system: RPMI-8226
[13] = test system: T47D
[14] = test system: NCI-H460
[15] = test system: SK-MEL-2
[16] = test system: SN12C
[17] = test system: LOX IMVI
[18] = test system: PC-3
[19] = test system: HOP-92
[20] = test system: OVCAR-8

SMILES | GI50 [1] | GI50 [2] | GI50 [3] | GI50 [4] | GI50 [5] | GI50 [6] | GI50 [7] | GI50 [8] | GI50 [9] [µM] | GI50 [10] | GI50 [11] | GI50 [12] | GI50 [13] | GI50 [14] | GI50 [15] | GI50 [16] | GI50 [17] | GI50 [18] | GI50 [19] | GI50 [20]
O=c1oc2ccccc2c(O)c1C(C/C(CCN1CCCC1)=N/O)c1ccccc1 (stereo not given) | > 100 µM (inactive) | > 48 µM (inactive) | > 100 µM (inactive) | > 100 µM (inactive) | > 100 µM (inactive) | > 100 µM (inactive) | 31.7 µM (inactive) | > 100 µM (inactive) | > 100 | > 100 µM (inactive) | > 100 µM (inactive) | > 94.8 µM (inactive) | 7.87 µM (inactive) | > 100 µM (inactive) | > 100 µM (inactive) | > 100 µM (inactive) | > 100 µM (inactive) | > 100 µM (inactive) | 56.4 µM (inactive) | > 100 µM (inactive)
CCN(CC)CCNc1ccc2ncn3c4ccc(OC)cc4c(=O)c1c23 | 5.65 µM (inactive) | 0.31 µM (active) | 6.07 µM (inactive) | 10.4 µM (inactive) | 1.49 µM (inactive) | 1.28 µM (inactive) | 16.3 µM (inactive) | 7.71 µM (inactive) | 1.57 | 2.78 µM (inactive) | 8.28 µM (inactive) | 1.21 µM (inactive) | 20 µM (inactive) | 0.646 µM (active) | 9.25 µM (inactive) | 2.14 µM (inactive) | 1.51 µM (inactive) | 3.83 µM (inactive) | 4.75 µM (inactive) | 0.836 µM (active)
c1ccc(C2OCC(OC3CCCCO3)CO2)cc1 (stereo not given) | > 100 µM (inactive) | 5.24 µM (inactive) | > 100 µM (inactive) | > 100 µM (inactive) | > 100 µM (inactive) | > 100 µM (inactive) | > 100 µM (inactive) | > 100 µM (inactive) | > 100 | > 100 µM (inactive) | > 100 µM (inactive) | > 100 µM (inactive) | > 100 µM (inactive) | > 100 µM (inactive) | > 100 µM (inactive) | > 100 µM (inactive) | > 100 µM (inactive) | > 100 µM (inactive) | > 100 µM (inactive) | > 100 µM (inactive)
COc1ccc(C2c3cc4c(cc3OC3(OC)COC(=O)C23)OCO4)c(OC)c1 (stereo not given) | 7.43 µM (inactive) | 4.91 µM (inactive) | 4.84 µM (inactive) | 32.6 µM (inactive) | 5.62 µM (inactive) | 3.4 µM (inactive) | 6.56 µM (inactive) | 15.9 µM (inactive) | 5.19 | 30 µM (inactive) | 31.9 µM (inactive) | 3.56 µM (inactive) | 29.4 µM (inactive) | 7.14 µM (inactive) | 12.6 µM (inactive) | 15.6 µM (inactive) | 6.95 µM (inactive) | 17.7 µM (inactive) | 26.5 µM (inactive) | 9.84 µM (inactive)
COC(=O)Cc1ccc2c(c1)Sc1ccc(CC(=O)OC)cc1N2C | 11.6 µM (inactive) | 9.66 µM (inactive) | 12.3 µM (inactive) | 58.3 µM (inactive) | 18.2 µM (inactive) | 10.8 µM (inactive) | 16.1 µM (inactive) | 38.3 µM (inactive) | 14.7 | 54 µM (inactive) | > 71.6 µM (inactive) | 39.1 µM (inactive) | 32.2 µM (inactive) | 33.1 µM (inactive) | 51.4 µM (inactive) | 33.7 µM (inactive) | 14.3 µM (inactive) | 25.8 µM (inactive) | 24.6 µM (inactive) | 34.3 µM (inactive)
N=c1c2c(=S)n(-c3ccccc3)c(=S)n(-c3ccccc3)c2nc(SCCN2CCOCC2)n1-c1ccccc1 | 1.94 µM (inactive) | 1.46 µM (inactive) | 2.73 µM (inactive) | 1.71 µM (inactive) | 1.99 µM (inactive) | 2.05 µM (inactive) | 1.98 µM (inactive) | 6.1 µM (inactive) | 1.91 | 1.77 µM (inactive) | 1.83 µM (inactive) | 1.04 µM (active) | 2.69 µM (inactive) | 2.49 µM (inactive) | 2.86 µM (inactive) | 2.06 µM (inactive) | 1.71 µM (inactive) | 1.85 µM (inactive) | 1.82 µM (inactive) | 2.06 µM (inactive)
CCCC(=O)NC(Nc1ccc(S(=O)(=O)Nc2ccc(OC)nn2)cc1)(C(F)(F)F)C(F)(F)F | > 100 µM (inactive) | > 100 µM (inactive) | > 100 µM (inactive) | > 100 µM (inactive) | > 100 µM (inactive) | > 100 µM (inactive) | > 100 µM (inactive) | > 100 µM (inactive) | > 100 | > 100 µM (inactive) | > 100 µM (inactive) | > 100 µM (inactive) | > 100 µM (inactive) | > 100 µM (inactive) | > 100 µM (inactive) | > 100 µM (inactive) | > 100 µM (inactive) | > 100 µM (inactive) | > 100 µM (inactive) | > 100 µM (inactive)
O=C1CC(O)c2c(Br)sc(Br)c21 (stereo not given) | 2.07 µM (inactive) | 1.91 µM (inactive) | 17.7 µM (inactive) | 3.54 µM (inactive) | 13.2 µM (inactive) | 17.7 µM (inactive) | 29.7 µM (inactive) | 16.6 µM (inactive) | 11.3 | 6 µM (inactive) | 10.4 µM (inactive) | 2.47 µM (inactive) | 9.59 µM (inactive) | 16.9 µM (inactive) | 14 µM (inactive) | 17.5 µM (inactive) | 4.48 µM (inactive) | 13 µM (inactive) | 17.9 µM (inactive) | 5.01 µM (inactive)
